One series relates to CCRF-CEM. The series can be described thus: Cytotoxic MTS assay, CCRF-CEM. Format: cell-based. The note with it: Homo sapiens, 72 h, T-lymphoblastic leukemia. The text has this:
(§1) Cytotoxic activity of all synthesized compounds was investigated in vitro against eight human cancer cell lines and two non-tumor fibroblasts using the standard MTS test (Table 1). The cancer cell lines were derived from T-lymphoblastic leukemia CCRF-CEM, leukemia K562 and their multiresistant counterparts expressing P-glycoprotein, MRP1 and LRP proteins (CEM-DNR, K562-TAX), solid tumors including lung (A549) and colon (HCT116, HCT116p53-/-) carcinomas, osteosarcoma cell line (U2OS), and for comparison, tests were performed on two human non-cancer fibroblast cell lines (BJ, MRC-5).
(§2) Biological assays were performed in concordance with our previous publications [[29], [58]; [60]; [61]]. All cells (if not indicated otherwise) were purchased from the American Tissue Culture Collection (ATCC). The CCRF-CEM line is derived from T lymphoblastic leukemia, evincing high chemosenzitivity, K562 represent cells from an acute myeloid leukemia patient sample with bcr-abl translocation, U2OS line is derived from osteosarcoma, HCT116 is colorectal tumor cell line and its p53 gene knock-down counterpart (HCT116p53-/-, Horizon Discovery Ltd, UK) is a model of human cancers with p53 mutation frequently associated with poor prognosis, A549 line is lung adenocarcinoma. The daunorubicin resistant subline of CCRF-CEM cells (CEM-DNR bulk) and paclitaxel resistant subline K562-TAX were selected in our laboratory by the cultivation of maternal cell lines in increasing concentrations of daunorubicine or paclitaxel, respectively. The CEM-DNR bulk cells overexpress MRP-1 and P-glycoprotein protein, while K562-TAX cells overexpress P-glycoprotein only. Both proteins belong to the family of ABC transporters and are involved in the primary and/or acquired multidrug resistance phenomenon. MRC-5 and BJ cell lines were used as a non-tumor control and represent human fibroblasts. The cells were maintained in nunc/corning 80 cm^2 plastic tissue culture flasks and cultured in cell culture medium according to ATCC or Horizon recommendations (DMEM/RPMI 1640 with 5 g/L glucose, 2 mM glutamine, 100 U/mL penicillin, […] streptomycin, 10% fetal calf serum, and NaHCO3).
(§3) MTS assay was performed at Institute of Molecular and Translational Medicine by robotic platform (HighResBiosolutions). Cell suspensions were prepared and diluted according to the particular cell type and the expected target cell density (25000–35000 cells/mL based on cell growth characteristics). Cells were added by automatic pipetor (30 μL) into 384 well microtiter plates. All tested compounds were dissolved in 100% DMSO and four-fold dilutions of the intended test concentration were added in 0.15 μL aliquots at time zero to the microtiter plate wells by the echoacustic non-contact liquid handler Echo550 (Labcyte). The experiments were performed in technical duplicates and three biological replicates at least. The cells were incubated with the tested compounds for 72 h at 37°C, in a 5% CO2 atmosphere at 100% humidity. At the end of the incubation period, the cells were assayed by using the MTS test. Aliquots (5 μL) of the MTS stock solution were pipetted into each well and incubated for additional 1–4 h. After this incubation period, the optical density (OD) was measured at 490 nm with an Envision reader (Perkin Elmer). Tumor cell survival (TCS) was calculated by using the following equation: TCS = (ODdrug-exposed well/mean ODcontrol wells) × 100%. The IC50 value, the drug concentration that is lethal to 50% of the tumor cells, was calculated from the appropriate dose-response curves in Dotmatics software.

In a further series the test system is CEM-DNR. The series can be described thus: Cytotoxic MTS assay, CEM-DNR. Format: cell-based. The note with it: Homo sapiens, 72 h, daunorubicin resistant subline of CCRF-CEM.
Description: as §1, §2, §3

For another series, the system named is K562. Kind of series: Cytotoxic MTS assay, K562. It counts as cell-based. The note with it: Homo sapiens, 72 h, leukemia.
Description: as §1, §2, §3

For the next series, the system named is K562-TAX. Kind of series: Cytotoxic MTS assay, K562-TAX. The note with it: Homo sapiens, 72 h, paclitaxel resistant subline of K562. Format: cell-based.
Description: as §1, §2, §3

In a further series the test system is A549. The series can be described thus: Cytotoxic MTS assay, A549. Format: cell-based. The note with it: Homo sapiens, 72 h, lung adenocarcinoma.
Description: as §1, §2, §3

In a further series the test system is HCT116. Kind of series: Cytotoxic MTS assay, HCT116. Format: cell-based. The note with it: Homo sapiens, HCT-116, 72 h, colorectal tumor.
Description: as §1, §2, §3

For the next series, the system named is HCT116p53-/-. The series can be described thus: Cytotoxic MTS assay, HCT116p53-/-. Format: cell-based. The note with it: Homo sapiens, 72 h, p53 knock-down colorectal tumor.
Description: as §1, §2, §3

A further series deals with U2OS. The series can be described thus: Cytotoxic MTS assay, U2OS. It counts as cell-based. The note with it: Homo sapiens, 72 h, osteosarcoma.
Description: as §1, §2, §3

A further series deals with BJ. The series can be described thus: Cytotoxic MTS assay, BJ fibroblasts. It counts as cell-based. Particulars: Homo sapiens, 72 h, non-tumor fibroblasts.
Description: as §1, §2, §3

The next series deals with MRC-5. The series can be described thus: Cytotoxic MTS assay, MRC-5 fibroblasts. It counts as cell-based. The note with it: Homo sapiens, MRC5, 72 h, non-tumor fibroblasts.
Description: as §1, §2, §3

The test system of series [1] is CCRF-CEM cells. Kind of series: Cell cycle and apoptosis analysis (propidium iodide flow cytometry). Format: cell-based, human. The protocol: (§4) Together with the treated cells, control sample containing vehicle was harvested at the same time point after 24 h. After another 24 hours, cells were then washed with cold PBS and fixed in 70% ethanol added dropwise and stored overnight at -20°C. Afterwards, cells were washed in hypotonic citrate buffer, treated with RNAse (50 μg/mL) and stained with propidium iodide. Flow cytometer using a 488 nm single beam laser (Becton Dickinson) was used for measurement. Cell cycle was analyzed in the program ModFitLT (Verity), and apoptosis was measured in logarithmic model expressing percentage of the particles with propidium content lower than cells in G0/G1 phase (<G1) of the cell cycle. Half of the sample was used for pH3^Ser10 antibody (Sigma) labeling and subsequent flow cytometry analysis of mitotic cells.

The test system of series [2] is CCRF-CEM cells. Kind of series: pH3Ser10 antibody labeling, flow cytometry of mitotic cells. Format: cell-based, human. The procedure: as §4
Series [3] has as its system CCRF-CEM cells. The series can be described thus: BrDU incorporation analysis (DNA synthesis). It counts as cell-based, human. More on the design: DNA synthesis: unit not given here. The procedure:
as §4
For this analysis, the same procedure of cultivation as previously was used. Before harvesting, 10 μM 5-bromo-2-deoxyuridine (BrDU), was added to the cells for puls-labeling for 30 min. Cells were fixed with ice-cold 70% ethanol and stored overnight. Before the analysis, cellswere washed with PBS, and resuspended in 2 M HCl for 30 min at room temperature to denature their DNA. Following neutralization with 0.1 M Na2B4O7 (Borax), cells were washed with PBS containing 0.5% Tween-20 and 1% BSA. Staining with primary anti-BrDU antibody (Exbio) for 30 min at room temperature in the dark followed. Cells were than washed with PBS and stained with secondary antimouse-FITC antibody (Sigma). Cells were then washed with PBS again and incubated with propidium iodide (0.1 mg/mL) and RNAse A (0.5 mg/mL) for 1 h at room temperature in the dark and afterwards analyzed by flow cytometry using a 488 nm single beam laser (FACSCalibur, Becton Dickinson).

Series [4] concerns CCRF-CEM cells. Kind of series: BrU incorporation analysis (RNA synthesis). Format: cell-based, human. More on the design: RNA synthesis: unit not given here. The protocol:
as §4
Cells were cultured and treated as above. Before harvesting, pulse-labeling with 1 mM 5-bromouridine (BrU) for 30 min followed. The cells were then fixed in 1% buffered paraformaldehyde with 0.05% of NP-40 in room temperature for 15 min, and then stored in 4°C overnight. Before measurement, they werewashed in PBS with 1% glycin, washed in PBS again, and stained by primary anti-BrDU antibody crossreacting to BrU (Exbio) for 30 min at room temperature in the dark. After another washing step in PBS cells were stained by secondary antimouse-FITC antibody (Sigma). Following the staining, cells were washed with PBS and fixed with 1% PBS buffered paraformaldehyde with 0.05% of NP-40 for 1 hour. Cells were washed by PBS, incubated with propidium iodide (0.1 mg/mL) and RNAse A (0.5 mg/mL) for 1 h at room temperature in the dark, and finally analyzed by flow cytometry using a 488 nm single beam laser (FACS Calibur, Becton Dickinson).

Consider `C=C(CBr)[C@@H]1CC[C@]2(C(=O)O)CC[C@]3(C)C(CCC4[C@@]5(C)CC[C@H](O[Si](c6ccccc6)(c6ccccc6)c6ccccc6)C(C)(C)C5CC[C@]43C)C12` (stereo partly drawn) [Compound 5, 3β-O-Triphenylsilyl-30-bromobetulinic acid], for which the melting point lay within 208 to 210 °C. This compound also had an IC50 with CCRF-CEM greater than 50 µM. The same compound gave an IC50 with CEM-DNR of 13.2 µM. Further, in the series on K562, the IC50 is greater than 50 µM. This compound returned an IC50 in the series with K562-TAX of 12.2 µM. In the series on A549, this compound returned an IC50 greater than 50 µM. In the series with HCT116, this compound gave an IC50 of 35.6 µM. In the series with HCT116p53-/-, this compound gave an IC50 of 31.1 µM. It took 27.9 µM to reach half-maximal inhibition with U2OS (IC50). Moreover, the IC50 with BJ is greater than 50 µM. In the series on MRC-5, this compound came in with an IC50 greater than 50 µM.

For `C=C(CBr)[C@@H]1CC[C@]2(C(=O)O)CC[C@]3(C)C(CCC4[C@@]5(C)CC[C@H](OC(C)=O)C(C)(C)C5CC[C@]43C)C12` (stereo partly drawn) [Compound 4, 3β-O-Acetyl-30-bromobetulinic acid], the IC50 came to 5.7 µM in the series on CCRF-CEM; 15.3 µM in the series on CEM-DNR; 21.7 µM in the series with K562; 15.8 µM in the series on K562-TAX; 13.2 µM with A549; 15.9 µM in the series on HCT116. Besides, the IC50 with HCT116p53-/- amounted to 14.1 µM; in the series with U2OS it was 21.2 µM; in the series on BJ, 31.7 µM; in the series on MRC-5 it was 24.2 µM. The “G0/G1 (%)” value in the series with CCRF-CEM cells [1] (1 × IC50) was found to be 47.3%; in the series on CCRF-CEM cells [1] (5 × IC50), 33.7%. Also, the “G2/M (%)” value with CCRF-CEM cells [1] (1 × IC50) turned out to be 16.8%; with CCRF-CEM cells [1] (5 × IC50), 23.2%. Further, the “S (%)” value in the series on CCRF-CEM cells [1] (1 × IC50) amounted to 35.9%; in the series with CCRF-CEM cells [1] (5 × IC50) it was 43.0%. Moreover, the entries for the “Sub G1 (%)” value in the series on CCRF-CEM cells [1] (1 × IC50) and with CCRF-CEM cells [1] (5 × IC50) were 9.4% and 39.7%, respectively. In addition, the “pH3Ser10 (%)” value came out at 1.34% with CCRF-CEM cells [2] (1 × IC50) and 2.35% in the series on CCRF-CEM cells [2] (5 × IC50). In the series on CCRF-CEM cells [3], the “effect on DNA synthesis (in words)” value is recorded as “inhibiting”. For the same compound, the DNA synthesis in the series on CCRF-CEM cells [3] (1 × IC50, BrDU incorporation) is 38.6; with CCRF-CEM cells [3] (5 × IC50, BrDU incorporation), 5.80. Further, the “effect on RNA synthesis (in words)” value with CCRF-CEM cells [4] is recorded as “inhibiting”. Further, the RNA synthesis with CCRF-CEM cells [4] (1 × IC50, BrU incorporation) is on record as 56.3; with CCRF-CEM cells [4] (5 × IC50, BrU incorporation), 24.8.

On to `C=C(CN=[N+]=[N-])[C@@H]1CC[C@]2(C(=O)O)CC[C@]3(C)C(CCC4[C@@]5(C)CC[C@H](OC(C)=O)C(C)(C)C5CC[C@]43C)C12` (stereo partly drawn) [Compound 6, 3β-O-Acetyl-30-azidobetulinic acid], for which the IC50 was 7.4 µM in the series with CCRF-CEM; 19.2 µM in the series with CEM-DNR; 12.3 µM in the series on K562; 15.5 µM with K562-TAX; 17.6 µM in the series on A549; 18.6 µM with HCT116. The IC50 with HCT116p53-/- was 19.7 µM; in the series on U2OS, 20.9 µM; with BJ, 26.7 µM; with MRC-5, 20 µM. The “G0/G1 (%)” value in the series on CCRF-CEM cells [1] (1 × IC50) is 49.3%; with CCRF-CEM cells [1] (5 × IC50), 41.4%. Further, the results for the “G2/M (%)” value in the series with CCRF-CEM cells [1] (1 × IC50) and in the series on CCRF-CEM cells [1] (5 × IC50) were 20.3% and 23.8%, respectively. For the same compound, the “S (%)” value came out at 30.4% in the series on CCRF-CEM cells [1] (1 × IC50) and 34.8% with CCRF-CEM cells [1] (5 × IC50). The “Sub G1 (%)” value in the series with CCRF-CEM cells [1] (1 × IC50) was determined as 10.7%; in the series with CCRF-CEM cells [1] (5 × IC50), 70.0%. Moreover, the results for the “pH3Ser10 (%)” value in the series on CCRF-CEM cells [2] (1 × IC50) and in the series on CCRF-CEM cells [2] (5 × IC50) were 1.80% and 2.68%, respectively. Also, the “effect on DNA synthesis (in words)” value in the series on CCRF-CEM cells [3] is recorded as “inhibiting”. Moreover, the DNA synthesis is 33.0 in the series on CCRF-CEM cells [3] (1 × IC50, BrDU incorporation) and 1.00 with CCRF-CEM cells [3] (5 × IC50, BrDU incorporation). Moreover, in the series on CCRF-CEM cells [4], the “effect on RNA synthesis (in words)” value is given as “inhibiting”. In addition, the RNA synthesis in the series with CCRF-CEM cells [4] (1 × IC50, BrU incorporation) was 14.1; with CCRF-CEM cells [4] (5 × IC50, BrU incorporation), 1.70.

Values taken from article PMC5291411, “Cytotoxic conjugates of betulinic acid and substituted triazoles prepared by Huisgen Cycloaddition from 30-azidoderivatives” (PLoS ONE, 2017).
